Results reported in patent EP4786483A1, “AURISTATIN DERIVATIVE AND ANTIBODY-DRUG CONJUGATE THEREOF” (priority 2023, dated 2025).
pIC50: −log10 of the molar value. Read-outs that look alike come from different tables or passages of the source. Non-standard residues stand in square brackets, D forms with d. Residues, ends and D or L forms follow the SMILES beside them. *: point of attachment. Dolaproine = CO[C@@H]([C@@H]1CCCN1)[C@@H](C)C(=O)O; Dil = CC[C@H](C)[C@H](NC)[C@@H](CC(=O)O)OC; Phe(3-NH2) = Nc1cccc(C[C@H](N)C(=O)O)c1; NMe2Val = CC(C)[C@@H](C(=O)*)N(C)C

Experiments:
Test in all cases: Cytotoxicity test for compounds (CellTiter-Glo cell proliferation inhibition)
Type in all cases: cell-based
[1] = test system: Human gastric cancer cells NCI-N87; details: for pIC50: 3 days of incubation, CellTiter-Glo, read-out: NCI-87/IC50; for IC50: read-out: NCI-87/IC50 (nM)
Procedure: (§1) Biological Test Example 1: Cytotoxicity Test for Compounds
(§2) • 96-well clear flat-bottom white plate (Corning, #3610) • RPMI1640 culture medium (Gibco, #A10491-01) • Fetal Bovine Serum (Sigma-Aldrich, #F8687-500ML) • CellTiter-Glo® Luminescent Cell Viability Assay (Promega, # G7572/G7571)
(§3) Human gastric cancer cells NCI-N87 (ATCC, Cat. No.: CRL-5822), human breast cancer cells MDA-MB-468 (Cell Bank of the Committee for Type Culture Collection of the Chinese Academy of Sciences, Cat. No.: TCHu136), and human breast cancer cells KPL-4 (Nanjing Cobioer Biosciences Co., Ltd., Cat. No.: CBP60379) were washed with PBS and digested with 0.25% Trypsin-EDTA trypsin for about 3-10 min. The digestion was terminated with a complete cell culture medium. The cells were centrifuged at 1000 rpm for 5 min, and the supernatant was discarded. The cells were resuspended in a complete cell culture medium. The cell number was counted using a cell counter, and the cells were adjusted to the desired density. 90.0 µL of the cell suspension was added to each well at 3000 cells/well. The cell plate was incubated in a cell incubator at 37°C with 5% CO2 overnight.
(§4) In the experiment, a DMSO control group and test sample groups were set. The cell plate was removed from the incubator to observe cell adherence. After the cells adhered, 10.00 µL of the sample (starting from a final concentration of 10 µM, 5-fold dilution, 9 concentrations) was added to each well. After the mixture was gently shaken uniformly, the plate was incubated in the incubator.
(§5) After 3 days of incubation, 100.0 µL/well of CellTiter-Glo™ (Promega, Cat. No.: G7572/G7571) working solution was added. The plate was shaken on a thermostatic shaker to lyse the cells. After 10 min, the plate was read on a microplate reader.
(§6) Data analysis: GraphPad Prism 8.0 software was used to plot a graph with the Log value of the sample concentration as the abscissa and the Inhibition% as the ordinate. The data were analyzed by Nonlinear regression (curve fit) to obtain the IC50 value of each test sample. Table 1. Inhibition activity of compounds of the present disclosure on cell proliferation

[2] = test system: human breast cancer cells KPL-4; details: for pIC50: 3 days of incubation, CellTiter-Glo, read-out: KPL-4/IC50; for IC50: read-out: KPL-4/IC50 (nM)
Procedure: as §1, §2, §3, §4, §5, §6

[3] = test system: human breast cancer cells MDA-MB-468; details: Homo sapiens, MDA-MB-468, 72 h; for pIC50: 3 days of incubation, CellTiter-Glo, read-out: MDA-MD-468/IC50; for IC50: read-out: MDA-MD-468/IC50 (nM)
Procedure: as §1, §2, §3, §4, §5, §6

SMILES | pIC50 ([1]; Homo sapiens, NCI-N87, 72 h) | pIC50 ([2]; Homo sapiens, KPL4, 72 h) | pIC50 [3] | IC50 ([1]; Homo sapiens, NCI-N87, 72 h) | IC50 ([2]; Homo sapiens, KPL4, 72 h) | IC50 [3] | pIC50 [1] | pIC50 [2]
CC[C@H](C)[C@@H]([C@@H](CC(=O)N1CCC[C@H]1[C@H](OC)[C@@H](C)C(=O)N1CCS[C@H](c2cccc(N)c2)C1)OC)N(C)C(=O)[C@@H](NC(=O)[C@H](C(C)C)N(C)C)C(C)C (single isomer, unassigned) [Example 60-P1] | 8.02 | 8.24 | 8.10 |  |  |  |  | 
CC[C@H](C)[C@@H]([C@@H](CC(=O)N1CCC[C@H]1[C@H](OC)[C@@H](C)C(=O)O[C@H](CC#N)Cc1cccc(N)c1)OC)N(C)C(=O)[C@@H](NC(=O)[C@H](C(C)C)N(C)C)C(C)C [Example 9, (S)-1-(3-aminophenyl)-3-cyanopropan-2-yl (2R,3R)-3-((S)-1-((3R,4S,5S)-4-((S)-2-((S)-2-(dimethylamino)-3-methylbutanamido)-N,3-dimethylbutanamido)-3-methoxy-5-methylheptanoyl)pyrrolidin-2-yl)-3-methoxy-2-methylpropanoate] | 8.42 | 9.13 | 8.48 |  |  |  |  | 
C=CC[C@H](Cc1cccc(N)c1)OC(=O)[C@H](C)[C@@H](OC)[C@@H]1CCCN1C(=O)C[C@@H](OC)[C@H]([C@@H](C)CC)N(C)C(=O)[C@@H](NC(=O)[C@H](C(C)C)N(C)C)C(C)C [Example 18] |  |  |  | < 0.0256 nM | < 0.0256 nM | < 0.0256 nM |  | 
CC[C@H](C)[C@@H]([C@@H](CC(=O)N1CCC[C@H]1[C@H](OC)[C@@H](C)C(=O)O[C@H](CF)Cc1cccc(N)c1)OC)N(C)C(=O)[C@@H](NC(=O)[C@H](C(C)C)N(C)C)C(C)C [Example 24] |  |  |  | < 0.0256 nM | < 0.0256 nM | < 0.0256 nM |  | 
C=CCN(C(=O)[C@H](C)[C@@H](OC)[C@@H]1CCCN1C(=O)C[C@@H](OC)[C@H]([C@@H](C)CC)N(C)C(=O)[C@@H](NC(=O)[C@H](C(C)C)N(C)C)C(C)C)[C@H](CC#N)Cc1cccc(N)c1 [Example 10, (S)-N-((3R,4S,5S)-1-((S)-2-((1R,2R)-3-(allyl((S)-1-(3-aminophenyl)-3-cyanopropan-2-yl)amino)-1-methoxy-2-methyl-3-oxopropyl)pyrrolidin-1-yl)-3-methoxy-5-methyl-1-oxoheptan-4-yl)-2-((S)-2-(dimethylamino)-3-methylbutanamido)-N,3-dimethylbutanamide] | 8.47 | 8.90 | 8.71 |  |  |  |  | 
CC[C@H](C)[C@@H]([C@@H](CC(=O)N1CCC[C@H]1[C@H](OC)[C@@H](C)C(=O)OC(/C=C/C(=O)OC)Cc1cccc(N)c1)OC)N(C)C(=O)[C@@H](NC(=O)[C@H](C(C)C)N(C)C)C(C)C (single isomer, unassigned) [Example 28] | 8.48 | > 10.59 | 8.49 |  |  |  |  | 
CC[C@H](C)[C@@H]([C@@H](CC(=O)N1CCC[C@H]1[C@H](OC)[C@@H](C)C(=O)N[C@@H](Cc1cccc(N)c1)C(N)=O)OC)N(C)C(=O)[C@@H](NC(=O)[C@H](C(C)C)N(C)C)C(C)C [Example 3, (S)-N-((3R,4S,5S)-1-((S)-2-((1R,2R)-3-(((S)-1-amino-3-(3-aminophenyl)-1-oxopropan-2-yl)amino)-1-methoxy-2-methyl-3-oxopropyl)pyrrolidin-1-yl)-3-methoxy-5-methyl-1-oxoheptan-4-yl)-2-((S)-2-(dimethylamino)-3-methylbutanamido)-N,3-dimethylbutanamide] (NMe2Val-V[Dil][Dolaproine][Phe(3-NH2)]-NH2) | 7.42 | 7.72 | 7.60 |  |  |  |  | 
CC[C@H](C)[C@@H]([C@@H](CC(=O)N1CCC[C@H]1[C@H](OC)[C@@H](C)C(=O)N1CCO[C@@H](c2cccc(N)c2)C1)OC)N(C)C(=O)[C@@H](NC(=O)[C@H](C(C)C)N(C)C)C(C)C [Example 51, (S)-N-((3R,4S,SS)-1-((S)-2-((1R,2R)-3-((S)-2-(3-aminophenyl)morpholino)-1-methoxy-2-methyl-3-oxopropyl)pyrrolidin-1-yl)-3-methoxy-5-methyl-1-oxoheptan-4-yl)-2-((S)-2-(dimethylamino)-3-methylbutanamido)-N,3-dimethylbutanamide] |  |  |  |  |  |  | 7.79 | 8.22
CC[C@H](C)[C@@H]([C@@H](CC(=O)N1CCC[C@H]1[C@H](OC)[C@@H](C)C(=O)O[C@H](CO)Cc1cccc(N)c1)OC)N(C)C(=O)[C@@H](NC(=O)[C@H](C(C)C)N(C)C)C(C)C [Example 14] |  |  |  | 5.13 nM | 1.13 nM | 3.82 nM |  | 
CC[C@H](C)[C@@H]([C@@H](CC(=O)N1CCC[C@H]1[C@H](OC)[C@@H](C)C(=O)OC1(Cc2cccc(N)c2)CC1)OC)N(C)C(=O)[C@@H](NC(=O)[C@H](C(C)C)N(C)C)C(C)C [Example 32] |  |  |  | < 0.0256 nM | < 0.0256 nM | < 0.0256 nM |  | 
C=C(C)C(Cc1cccc(N)c1)OC(=O)[C@H](C)[C@@H](OC)[C@@H]1CCCN1C(=O)C[C@@H](OC)[C@H]([C@@H](C)CC)N(C)C(=O)[C@@H](NC(=O)[C@H](C(C)C)N(C)C)C(C)C (stereo partly shown) [Example 31] |  |  |  | < 0.0256 nM | < 0.0256 nM | 0.11 nM |  | 
CCC(C)C(C(CC(=O)N1CCCC1C(OC)C(C)C(=O)OC(Cc1cccc(N)c1)C(=O)NC)OC)N(C)C(=O)C(NC(=O)C(C(C)C)N(C)C)C(C)C (stereo not shown) [Example 30] | 8.25 | 8.62 | 9.14 |  |  |  |  | 
CC[C@H](C)[C@@H]([C@@H](CC(=O)N1CCC[C@H]1[C@H](OC)[C@@H](C)C(=O)O[C@@H](C)Cc1cccc(N)c1)OC)N(C)C(=O)[C@@H](NC(=O)[C@H](C(C)C)N(C)C)C(C)C [Example 12, (S)-1-(3-aminophenyl)propan-2-yl (2R,3R)-3-((S)-1-((3R,4S,5S)-4-((S)-2-((S)-2-(dimethylamino)-3-methylbutanamido)-N,3-dimethylbutanamido)-3-methoxy-5-methylheptanoyl)pyrrolidin-2-yl)-3-methoxy-2-methylpropanoate] | 8.39 | 8.85 | 7.93 |  |  |  |  | 
CC[C@H](C)[C@@H]([C@@H](CC(=O)N1CCC[C@H]1[C@H](OC)[C@@H](C)C(=O)N1CCSC(c2cccc(N)c2)C1)OC)N(C)C(=O)[C@@H](NC(=O)[C@H](C(C)C)N(C)C)C(C)C (single isomer, unassigned) [Example 60-P2] | 9.15 | 9.22 | 9.00 |  |  |  |  | 
CC[C@H](C)[C@@H]([C@@H](CC(=O)N1CCC[C@H]1[C@H](OC)[C@@H](C)C(=O)O[C@@H](Cc1cccc(N)c1)C(F)F)OC)N(C)C(=O)[C@@H](NC(=O)[C@H](C(C)C)N(C)C)C(C)C [Example 25] |  |  |  | < 0.0256 nM | < 0.0256 nM | < 0.0256 nM |  | 
CC[C@H](C)[C@@H]([C@@H](CC(=O)N1CCC[C@H]1[C@H](OC)[C@@H](C)C(=O)N1CCO[C@H](c2cccc(N)c2)C1)OC)N(C)C(=O)[C@@H](NC(=O)[C@H](C(C)C)N(C)C)C(C)C [Example 48, (S)-N-((3R,4S,55)-1-((S)-2-((1R,2R)-3-((R)-2-(3-aminophenyl)morpholino)-1-methoxy-2-methyl-3-oxopropyl)pyrrolidin-1-yl)-3-methoxy-5-methyl-1-oxoheptan-4-yl)-2-((S)-2-(dimethylamino)-3-methylbutanamido)-N,3-dimethylbutanamide] |  |  |  |  |  |  | 8.33 | 8.69
